Activity calls are given as the source filed them. The rule behind the calls is not given here.
Columns and labels:
[1] = Volume of distribution at steady state in ICR mouse at 0.5 mg/kg, iv by LC-MS/SM analysis; type: ADME, organism-based; conditions: in vivo, read-out: Vdss
[2] = Cmax in ICR mouse at 5 mg/kg, po by LC-MS/SM analysis; type: ADME, organism-based; design: dose 5 mg/kg, route oral; conditions: in vivo
Mus musculus [3] = assay: Antifibrotic activity in bleomycin-induced C57BL/6 mouse model of pulmonary fibrosis assessed as reduction in lung hydroxyproline level at 1 mg/kg, po administered once daily for 18 days starting from 10 days post-bleomycin challenge and measured post last dose; type: functional, organism-based
[4] = biological target: T1, Phosphatidylinositol 4,5-bisphosphate 3-kinase catalytic subunit gamma isoform (Homo sapiens, UniProt P48736); assay: Binding affinity to wild-type human partial length PIK3CG (S144 to A1102 residues) expressed in mammalian expression system assessed as residual binding level at 1 uM by kinomescan assay relative to control
Target sequence in this assay (P48736 whole entry, looked up, the tested form may be a part, canonical isoform): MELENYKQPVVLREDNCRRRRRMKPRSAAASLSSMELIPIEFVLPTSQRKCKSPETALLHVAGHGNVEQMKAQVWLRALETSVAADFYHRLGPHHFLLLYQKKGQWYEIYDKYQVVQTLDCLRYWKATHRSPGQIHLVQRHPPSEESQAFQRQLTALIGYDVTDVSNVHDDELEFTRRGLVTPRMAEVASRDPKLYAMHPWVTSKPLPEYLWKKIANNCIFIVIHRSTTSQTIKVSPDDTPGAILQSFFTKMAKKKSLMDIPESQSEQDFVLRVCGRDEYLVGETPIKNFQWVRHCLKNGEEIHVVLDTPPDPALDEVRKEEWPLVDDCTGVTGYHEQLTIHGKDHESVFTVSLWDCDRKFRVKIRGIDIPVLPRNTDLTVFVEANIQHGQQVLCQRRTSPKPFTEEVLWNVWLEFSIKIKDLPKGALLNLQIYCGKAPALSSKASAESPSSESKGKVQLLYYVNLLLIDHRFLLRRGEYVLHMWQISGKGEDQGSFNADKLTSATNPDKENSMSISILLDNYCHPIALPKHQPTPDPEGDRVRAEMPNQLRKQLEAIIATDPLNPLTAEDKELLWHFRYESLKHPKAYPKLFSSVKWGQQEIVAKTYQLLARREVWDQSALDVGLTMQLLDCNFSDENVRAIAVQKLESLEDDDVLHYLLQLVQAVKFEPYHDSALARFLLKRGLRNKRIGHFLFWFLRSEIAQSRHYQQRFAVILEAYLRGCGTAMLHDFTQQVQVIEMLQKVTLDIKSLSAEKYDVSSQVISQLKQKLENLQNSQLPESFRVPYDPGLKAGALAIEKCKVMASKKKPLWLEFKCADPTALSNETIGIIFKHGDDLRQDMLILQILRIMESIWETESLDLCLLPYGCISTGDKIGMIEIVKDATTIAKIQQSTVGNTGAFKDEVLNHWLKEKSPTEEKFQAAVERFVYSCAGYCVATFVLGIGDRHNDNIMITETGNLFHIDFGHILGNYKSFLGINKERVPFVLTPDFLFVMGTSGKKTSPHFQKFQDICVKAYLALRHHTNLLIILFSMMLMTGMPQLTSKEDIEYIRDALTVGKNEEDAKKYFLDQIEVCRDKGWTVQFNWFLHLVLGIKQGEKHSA

Mus musculus [5] = assay: Antifibrotic activity in bleomycin-induced C57BL/6 mouse model of pulmonary fibrosis assessed as reduction in respiratory system resistance at 1 mg/kg, po administered once daily for 18 days starting from 10 days post-bleomycin challenge and measured post last dose; type: functional, organism-based
Mus musculus [6] = assay: (§1) Antifibrotic activity in bleomycin-induced C57BL/6 mouse model of pulmonary fibrosis assessed as reduction in lung damage at 1 mg/kg, po administered once daily for 18 days starting from 10 days post-bleomycin challenge and measured post last dose by H and E staining-based histopathological analysis; type: functional, organism-based
[7] = biological target: PI3-kinase p110-delta/p85-alpha (Homo sapiens, UniProt O00329); assay: Inhibition of recombinant human N-terminal GST-tagged full-length p110delta/human p85alpha expressed in Sf9 insect cells using PIP2 as substrate by ADP-glo assay
[8] = biological target: Phosphatidylinositol 4,5-bisphosphate 3-kinase catalytic subunit alpha isoform (Homo sapiens) (UniProt P42336); assay: Binding affinity to wild-type human partial length PIK3CA (R108 to N1068 residues) expressed in mammalian expression system assessed as residual binding level at 1 uM by kinomescan assay relative to control
Mus musculus [9] = species: Mus musculus; assay: Inhibition of class 1 PI3K in mouse Mlg2908 cells assessed as reduction in p70S6K phosphorylation measured after 3 hrs by Western blot analysis; type: cell-based
Mus musculus [10] = assay: Antifibrotic activity in bleomycin-induced C57BL/6 mouse model of pulmonary fibrosis assessed as reduction in lung index at 1 mg/kg, po administered once daily for 18 days starting from 10 days post-bleomycin challenge and measured post last dose; type: functional, organism-based
[11] = Half life in ICR mouse at 0.5 mg/kg, iv by LC-MS/SM analysis; type: ADME, organism-based; conditions: in vivo
Mus musculus [12] = species: Mus musculus; assay: Inhibition of class 1 PI3K in mouse Mlg2908 cells assessed as reduction in S6RP phosphorylation measured after 3 hrs by Western blot analysis; type: cell-based
[13] = Apparent permeability across apical to basolateral side in human Caco2 cells measured after 90 mins by LC-MS/MS analysis; conditions: Caco-2
Mus musculus [14] = assay: (§2) Antifibrotic activity in bleomycin-induced C57BL/6 mouse model of pulmonary fibrosis assessed as reduction in lung fibronectin level at 1 mg/kg, po administered once daily for 18 days starting from 10 days post-bleomycin challenge and measured post last dose by Western blot analysis; type: functional, organism-based
[15] = Dose normalized AUC in ICR mouse at 5 mg/kg, po by LC-MS/SM analysis; type: ADME, organism-based; conditions: in vivo
[16] = Apparent permeability across basolateral to apical side in human Caco2 cells measured after 90 mins by LC-MS/MS analysis; conditions: Caco-2
[17] = biological target: T1, Phosphatidylinositol 4,5-bisphosphate 3-kinase catalytic subunit gamma isoform; assay: Inhibition of recombinant human N-terminal His-tagged full-length p120gamma expressed in Sf9 insect cells using PIP2 as substrate by ADP-glo assay
Mus musculus [18] = species: Mus musculus; assay: Inhibition of class 1 PI3K in mouse Mlg2908 cells assessed as reduction in AKT phosphorylation at T308 residue measured after 3 hrs by Western blot analysis; type: cell-based
Mus musculus [19] = assay: Antifibrotic activity in bleomycin-induced C57BL/6 mouse model of pulmonary fibrosis assessed as reduction in inspiratory capacity at 1 mg/kg, po administered once daily for 18 days starting from 10 days post-bleomycin challenge and measured post last dose; type: functional, organism-based
[20] = Toxicity in po dosed C57BL/6 mouse administered once daily via gavage for 7 days measured post-last dose; type: organism-based; conditions: in vivo
[21] = Clearance in ICR mouse at 0.5 mg/kg, iv by LC-MS/SM analysis; type: ADME, organism-based; conditions: in vivo
[22] = Half life in ICR mouse at 5 mg/kg, po by LC-MS/SM analysis; type: ADME, organism-based; conditions: in vivo
Mus musculus [23] = species: Mus musculus; assay: Inhibition of class 1 PI3K in mouse Mlg2908 cells assessed as reduction in AKT phosphorylation at S473 residue measured after 3 hrs by Western blot analysis; type: cell-based
Mus musculus [24] = assay: Antifibrotic activity in bleomycin-induced C57BL/6 mouse model of pulmonary fibrosis assessed as reduction in respiratory system elastance at 1 mg/kg, po administered once daily for 18 days starting from 10 days post-bleomycin challenge and measured post last dose; type: functional, organism-based
[25] = Toxicity in po dosed C57BL/6 mouse administered as single dose via gavage measured up to 7 days; type: organism-based; conditions: in vivo
[26] = biological target: Phosphatidylinositol 4-phosphate 3-kinase C2 domain-containing subunit beta (Homo sapiens) (UniProt O00750); assay: Binding affinity to wild-type human partial length PIK3C2B (M1 to L1634 residues) expressed in mammalian expression system assessed as residual binding level at 1 uM by kinomescan assay relative to control
[27] = Oral bioavailability in ICR mouse at 5 mg/kg by LC-MS/SM analysis; type: ADME, organism-based; conditions: in vivo
[28] = Antifibrotic activity against mouse Mlg2908 cells assessed as reduction in cell viability measured after 72 hrs by MTT assay; type: functional, cell-based
[29] = biological target: PI3-kinase p110-alpha/p85-alpha (Homo sapiens, UniProt P42336); assay: Inhibition of recombinant human N-terminal FLAG-tagged full-length p110alpha/human p85alpha expressed in Sf9 insect cells using PIP2 as substrate by kinase-glo assay
Mus musculus [30] = assay: as §1, with “collagen fiber deposition” for “lung damage”, “Masson” for “H and E”; type: functional, organism-based
[31] = AUC (0 to infinity) in ICR mouse at 0.5 mg/kg, iv by LC-MS/SM analysis; type: ADME, organism-based; design: dose 0.5 mg/kg, time infinity, route intravenous; conditions: in vivo
[32] = AUC (0 to infinity) in ICR mouse at 5 mg/kg, po by LC-MS/SM analysis; type: ADME, organism-based; design: dose 5 mg/kg, route oral, time infinity; conditions: in vivo
PI3K p110 beta/p85 alpha = PI3K p110 beta/p85 alpha (Homo sapiens, UniProt P42338); assay: Inhibition of recombinant human N-terminal FLAG-tagged full-length p110beta/human p85alpha expressed in Sf9 insect cells using PIP2 as substrate by ADP-glo assay
Mus musculus [33] = assay: Antifibrotic activity in bleomycin-induced C57BL/6 mouse model of pulmonary fibrosis assessed as reduction in respiratory system compliance at 1 mg/kg, po administered once daily for 18 days starting from 10 days post-bleomycin challenge and measured post last dose; type: functional, organism-based
[34] = Therapeutic index, ratio of MTD in po dosed C57BL/6 mouse to compound effect for antifibrotic activity in bleomycin-induced C57BL/6 mouse model of pulmonary fibrosis; type: toxicity, organism-based; conditions: in vivo, read-out: TI
Mus musculus [35] = assay: as §2, with “alpha-SMA” for “fibronectin”, “immunostaining-based histopathological” for “Western blot”; type: functional, organism-based

Chain of PI3K p110 beta/p85 alpha (P27986 whole entry): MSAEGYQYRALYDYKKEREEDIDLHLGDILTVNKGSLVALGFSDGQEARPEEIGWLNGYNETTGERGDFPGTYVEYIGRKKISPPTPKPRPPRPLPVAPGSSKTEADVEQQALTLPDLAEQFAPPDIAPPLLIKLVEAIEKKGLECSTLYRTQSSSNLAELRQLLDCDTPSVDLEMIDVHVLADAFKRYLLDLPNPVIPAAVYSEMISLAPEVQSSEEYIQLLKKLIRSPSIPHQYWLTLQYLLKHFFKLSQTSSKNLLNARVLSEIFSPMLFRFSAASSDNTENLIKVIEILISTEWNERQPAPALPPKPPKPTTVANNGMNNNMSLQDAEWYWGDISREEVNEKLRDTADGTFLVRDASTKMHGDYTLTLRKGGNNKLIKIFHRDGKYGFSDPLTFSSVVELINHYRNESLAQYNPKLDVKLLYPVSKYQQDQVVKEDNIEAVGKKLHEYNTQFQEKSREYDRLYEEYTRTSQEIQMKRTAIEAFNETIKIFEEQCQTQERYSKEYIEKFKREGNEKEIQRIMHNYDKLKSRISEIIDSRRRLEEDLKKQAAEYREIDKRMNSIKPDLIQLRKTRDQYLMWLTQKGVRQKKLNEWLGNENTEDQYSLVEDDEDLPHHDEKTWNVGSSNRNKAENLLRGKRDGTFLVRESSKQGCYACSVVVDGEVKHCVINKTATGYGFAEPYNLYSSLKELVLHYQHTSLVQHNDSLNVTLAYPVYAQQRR
Chain of PI3K p110 beta/p85 alpha (P42338 whole entry): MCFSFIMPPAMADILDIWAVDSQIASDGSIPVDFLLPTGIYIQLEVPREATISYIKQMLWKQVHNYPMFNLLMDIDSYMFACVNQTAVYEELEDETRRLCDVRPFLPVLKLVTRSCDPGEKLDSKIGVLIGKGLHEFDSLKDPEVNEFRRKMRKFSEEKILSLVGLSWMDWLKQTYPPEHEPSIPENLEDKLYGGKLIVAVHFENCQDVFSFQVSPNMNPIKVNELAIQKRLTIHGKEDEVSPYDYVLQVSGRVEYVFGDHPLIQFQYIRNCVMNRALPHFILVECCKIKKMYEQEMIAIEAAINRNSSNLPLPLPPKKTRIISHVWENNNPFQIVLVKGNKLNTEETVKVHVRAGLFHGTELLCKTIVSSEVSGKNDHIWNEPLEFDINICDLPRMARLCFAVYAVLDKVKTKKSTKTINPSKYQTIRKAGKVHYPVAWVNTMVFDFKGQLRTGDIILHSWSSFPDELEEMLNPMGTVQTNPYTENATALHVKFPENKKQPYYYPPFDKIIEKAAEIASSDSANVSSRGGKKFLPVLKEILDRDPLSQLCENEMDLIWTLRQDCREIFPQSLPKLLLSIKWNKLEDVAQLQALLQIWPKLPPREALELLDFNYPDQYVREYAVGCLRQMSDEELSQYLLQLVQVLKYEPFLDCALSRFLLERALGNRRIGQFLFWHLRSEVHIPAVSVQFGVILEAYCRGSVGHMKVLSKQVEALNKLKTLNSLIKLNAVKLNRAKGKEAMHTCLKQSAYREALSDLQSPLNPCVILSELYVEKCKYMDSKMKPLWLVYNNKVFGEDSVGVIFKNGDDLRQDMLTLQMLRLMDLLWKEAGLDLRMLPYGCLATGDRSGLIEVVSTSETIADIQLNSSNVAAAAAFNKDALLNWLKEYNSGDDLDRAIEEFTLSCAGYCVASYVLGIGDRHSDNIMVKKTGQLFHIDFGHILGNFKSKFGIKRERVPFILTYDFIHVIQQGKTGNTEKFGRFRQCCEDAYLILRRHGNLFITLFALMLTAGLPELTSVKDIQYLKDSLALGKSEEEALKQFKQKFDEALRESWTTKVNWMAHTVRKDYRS
Chain of PI3-kinase p110-delta/p85-alpha (P27986 whole entry, the tested form may be a part, canonical isoform): as the sequence (P27986 whole entry) above
Chain of PI3-kinase p110-delta/p85-alpha (O00329 whole entry, the tested form may be a part, canonical isoform): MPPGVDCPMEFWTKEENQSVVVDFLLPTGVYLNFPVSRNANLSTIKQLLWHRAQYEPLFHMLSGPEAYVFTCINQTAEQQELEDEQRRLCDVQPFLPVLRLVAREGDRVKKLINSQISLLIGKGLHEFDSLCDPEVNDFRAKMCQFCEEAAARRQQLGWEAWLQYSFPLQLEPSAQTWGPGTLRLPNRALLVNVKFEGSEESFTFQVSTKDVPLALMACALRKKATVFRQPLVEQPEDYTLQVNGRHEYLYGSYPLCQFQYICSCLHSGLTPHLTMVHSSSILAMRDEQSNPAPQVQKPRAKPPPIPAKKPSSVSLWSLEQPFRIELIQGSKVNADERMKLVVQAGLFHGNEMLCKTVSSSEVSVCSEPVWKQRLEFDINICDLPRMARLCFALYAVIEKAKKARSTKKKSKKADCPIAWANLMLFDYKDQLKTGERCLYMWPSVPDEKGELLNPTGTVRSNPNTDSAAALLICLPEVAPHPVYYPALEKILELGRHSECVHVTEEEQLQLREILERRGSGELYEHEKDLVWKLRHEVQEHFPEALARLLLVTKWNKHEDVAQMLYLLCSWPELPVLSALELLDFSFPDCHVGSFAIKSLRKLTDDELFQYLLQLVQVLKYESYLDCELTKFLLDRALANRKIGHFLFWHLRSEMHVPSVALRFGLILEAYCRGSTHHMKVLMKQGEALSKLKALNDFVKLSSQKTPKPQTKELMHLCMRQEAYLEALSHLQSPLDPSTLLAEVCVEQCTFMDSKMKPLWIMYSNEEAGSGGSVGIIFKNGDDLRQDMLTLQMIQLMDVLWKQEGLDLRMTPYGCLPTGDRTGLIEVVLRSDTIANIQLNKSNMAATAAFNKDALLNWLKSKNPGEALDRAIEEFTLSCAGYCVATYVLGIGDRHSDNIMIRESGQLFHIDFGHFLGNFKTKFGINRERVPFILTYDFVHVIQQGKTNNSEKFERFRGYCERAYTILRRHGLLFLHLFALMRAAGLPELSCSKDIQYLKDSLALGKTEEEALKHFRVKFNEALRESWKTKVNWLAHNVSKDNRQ
Chain of PI3-kinase p110-alpha/p85-alpha (P27986 whole entry): as the sequence (P27986 whole entry) above
Chain of PI3-kinase p110-alpha/p85-alpha (P42336 whole entry): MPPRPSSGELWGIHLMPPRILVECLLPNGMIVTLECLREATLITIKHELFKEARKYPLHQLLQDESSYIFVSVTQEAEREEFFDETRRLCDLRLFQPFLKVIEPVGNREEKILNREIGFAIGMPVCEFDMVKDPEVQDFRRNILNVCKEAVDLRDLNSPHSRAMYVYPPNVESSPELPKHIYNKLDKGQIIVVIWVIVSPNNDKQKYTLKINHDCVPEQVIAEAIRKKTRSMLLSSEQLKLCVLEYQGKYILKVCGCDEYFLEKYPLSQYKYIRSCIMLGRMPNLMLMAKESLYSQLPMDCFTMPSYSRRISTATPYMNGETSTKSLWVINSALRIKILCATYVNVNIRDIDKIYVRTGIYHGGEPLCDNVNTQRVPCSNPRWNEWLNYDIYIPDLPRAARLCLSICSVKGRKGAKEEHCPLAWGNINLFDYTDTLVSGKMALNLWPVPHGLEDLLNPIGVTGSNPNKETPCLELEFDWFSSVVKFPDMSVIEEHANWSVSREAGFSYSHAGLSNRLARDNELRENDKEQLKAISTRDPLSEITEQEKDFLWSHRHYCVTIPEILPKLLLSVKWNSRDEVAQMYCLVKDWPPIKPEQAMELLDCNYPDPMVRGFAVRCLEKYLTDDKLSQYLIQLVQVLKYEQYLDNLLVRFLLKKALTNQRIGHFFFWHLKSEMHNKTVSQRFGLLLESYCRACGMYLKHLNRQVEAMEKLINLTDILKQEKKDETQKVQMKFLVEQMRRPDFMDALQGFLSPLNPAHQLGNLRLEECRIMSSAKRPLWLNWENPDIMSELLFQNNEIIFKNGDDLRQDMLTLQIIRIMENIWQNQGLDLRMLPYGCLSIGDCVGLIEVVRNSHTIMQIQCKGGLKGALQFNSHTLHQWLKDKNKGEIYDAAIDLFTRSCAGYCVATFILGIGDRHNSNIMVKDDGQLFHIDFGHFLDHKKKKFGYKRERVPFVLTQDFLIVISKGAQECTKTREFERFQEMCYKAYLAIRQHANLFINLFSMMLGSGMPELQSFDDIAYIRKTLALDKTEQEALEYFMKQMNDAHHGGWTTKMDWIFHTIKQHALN

SMILES: COc1ncc(-c2cc(OCC3(C)COC3)c3ncnc(C)c3c2)cc1NS(=O)(=O)c1ccc(F)cc1F
- Vd [1]: 0.733 L/kg
- Cmax [2]: 1220 ng/mL
- Activity (Mus musculus [3]): Active
- Activity [4]: 0%
- Activity (Mus musculus [5]): Active
- Activity (Mus musculus [6]): Active
- IC50 [7]: 1.1 nM
- Activity [8]: 0%
- inhibition (Mus musculus [9]): Dose-dependent effect
- Activity (Mus musculus [10]): Active
- half-life [11]: 0.66 h
- inhibition (Mus musculus [12]): Dose-dependent effect
- Papp A→B at 1.5 h [13]: 46 ×10⁻⁶ cm/s
- Activity (Mus musculus [14]): Active
- AUC/dose [15]: 734 ng·h/mL per mg/kg
- Papp B→A at 1.5 h [16]: 36 ×10⁻⁶ cm/s
- IC50 [17]: 1.6 nM
- inhibition (Mus musculus [18]): Dose-dependent effect
- Activity (Mus musculus [19]): Active
- MTD at 168 h [20]: > 10 mg/kg
- clearance [21]: 12.8 mL/min/kg
- half-life [22]: 4.98 h
- inhibition (Mus musculus [23]): Dose-dependent effect
- Activity (Mus musculus [24]): Active
- MTD at 168 h [25]: > 30 mg/kg
- Activity [26]: 0%
- bioavailability [27]: 53.1%
- IC50 [28]: 5 nM
- IC50 [29]: 0.87 nM
- Activity (Mus musculus [30]): Active
- AUC(0-inf) [31]: 651 ng·h/mL
- AUC(0-inf) [32]: 3670 ng·h/mL
- IC50 (PI3K p110 beta/p85 alpha): 0.7 nM
- Activity (Mus musculus [33]): Active
- selectivity ratio [34]: > 10
- Activity (Mus musculus [35]): Active

From ChEMBL document CHEMBL4321792, “Discovery of 4-Methylquinazoline Based PI3K Inhibitors for the Potential Treatment of Idiopathic Pulmonary Fibrosis” (J Med Chem, 2019)
